Entries after “also recorded” stand apart in the source; their conditions may differ. Where two headings read alike, the source gives them in different places.
Tests used:
[1] = Stability in fresh human lung tissue in vitro, with and without esterase inhibitor dichlorvos; assay type: in vitro ADME; conditions: 37°C
Protocol: Incubations were performed in the presence and absence of dichlorvos (1 mg/mL). Over 24 hours, samples of 1.0 mL tissue-free supernatant were taken and immediately stored at -20°C until analysis. The incubation medium was replenished by buffer which was pre-temperated to 37°C. In case of incubations with dichlorvos the medium used for replenishment contained the esterase inhibitor.
(§1) Samples of 1.0 mL (tissue desorption/stability) or 2.0 mL (tissue adsorption) were mixed with 0.1 mL internal standard solution and extracted twice with 3 mL diethylether for 30 min, using a roller mixer, followed by centrifugation (20°C) for 5 min. The organic phase was separated and evaporated to dryness under a gentle stream of nitrogen at 25°C. The resulting residue was reconstituted in 0.2 mL mobile phase. […] Linearity was given from 10–500 ng/mL glucocorticoid, coefficients of correlation of the calibration curves were at least 0.99.
The HPLC system was a Waters HPLC (Milford, MA) consisting of a 1525 binary pump, an 717plus autosampler and 2487 dual wavelength absorbance detector set at the detection wavelength of 254 nm. Data collection and integration were accomplished using Breeze™ software version 3.2. Analysis was performed on a Symmetry C18 column (150 × 4.6 mm I.D., 5 μm particle size, Waters, MA). […] The lower limit of quantitation was 10 ng/mL for all glucocorticoids except ciclesonide (20 ng/mL).

[2] = molecular target: T1, human lung glucocorticoid receptor (Homo sapiens, UniProt P04150); assay: Kinetic receptor binding experiments (association and dissociation kinetics) in human lung cytosol; parameters: we isolated human lung glucocorticoid receptors from human lung tissue; from tissue; host or cells: human lung tissue cytosol (105,000 x g supernatant); conditions: 20°C, mean and mean deviation of the mean, 3-7 experiments
T1 sequence (P04150 1-777): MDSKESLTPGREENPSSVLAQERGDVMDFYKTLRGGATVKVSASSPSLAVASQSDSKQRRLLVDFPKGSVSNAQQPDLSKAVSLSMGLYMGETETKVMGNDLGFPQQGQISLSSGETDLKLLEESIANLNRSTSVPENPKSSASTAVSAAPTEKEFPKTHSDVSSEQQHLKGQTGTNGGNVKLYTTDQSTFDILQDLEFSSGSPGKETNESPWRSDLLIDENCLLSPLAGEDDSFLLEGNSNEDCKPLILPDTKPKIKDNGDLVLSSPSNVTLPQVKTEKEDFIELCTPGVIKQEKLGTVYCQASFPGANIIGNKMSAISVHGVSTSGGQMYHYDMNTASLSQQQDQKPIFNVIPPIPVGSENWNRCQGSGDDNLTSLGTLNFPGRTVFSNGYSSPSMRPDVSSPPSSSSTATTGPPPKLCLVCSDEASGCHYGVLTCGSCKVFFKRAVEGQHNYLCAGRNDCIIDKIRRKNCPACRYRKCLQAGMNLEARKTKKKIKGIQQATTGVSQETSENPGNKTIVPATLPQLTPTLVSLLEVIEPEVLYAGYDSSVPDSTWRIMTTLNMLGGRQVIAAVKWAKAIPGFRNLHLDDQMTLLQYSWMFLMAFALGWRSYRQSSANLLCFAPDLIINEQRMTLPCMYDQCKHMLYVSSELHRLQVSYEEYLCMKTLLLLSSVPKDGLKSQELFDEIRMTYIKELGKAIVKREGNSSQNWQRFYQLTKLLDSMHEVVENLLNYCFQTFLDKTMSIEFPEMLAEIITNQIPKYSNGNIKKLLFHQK
Protocol: Human lung tissue was deep frozen immediately after resection and stored in liquid nitrogen. Frozen tissue was pulverized and homogenized in three aliquots buffer solution A with an Ultra Turrax mixer (Janke and Kunkel, Staufen, Germany) in an ice bath. […] The cytosol was stored in aliquots at -70°C.
The receptor binding experiments were performed according to the procedure described earlier [1] based on [7-9].
The assay for total binding (Bt in [mol/L]) was carried out accordingly, but the unlabelled glucocorticoid was replaced by buffer solution G. To determine the total [^3H]-glucocorticoid concentration (T), 20 μL of the mixture were used for scintillation counting. […]
The Zt-values were plotted against time t and a linear regression was performed. The slope of the straight line (kAss = k1) and the coefficient of correlation r were calculated based on a minimum of four data points. […]
The Bs,t-values were plotted semi-logarithmical against time t and a linear regression was performed. The slope of the straight line (kDiss = k-1) and the coefficient of correlation r were calculated based on a minimum of six data points.
Equilibrium dissociation constant (KD) was calculated for each glucocorticoid based on association and dissociation rate constants:

[3] = Control experiment for non-specific adsorption to glass incubation vials (buffer without tissue); assay type: physicochemical; conditions: 480 min at 37°C, Krebs-Ringer-HEPES buffer; for non-specific binding to glass incubation vials: no tissue
Protocol: Lung tissue was washed in Krebs-Ringer-HEPES buffer (pH 7.4) and sliced into pieces of 1 mm^3. For each binding experiment approximately 0.5 g of lung tissue was used. Adsorption of glucocorticoids (0.3 μg/mL) to human lung tissue was determined as described earlier. Briefly, lung tissue pieces were suspended under gentle shaking for 1 h at 37°C in 20 ml Krebs-Ringer-HEPES buffer containing 0.3 μg/ml of the glucocorticoid. 2.0 mL samples were taken and stored at -20°C until analysis. The volume withdrawn was replaced with fresh buffer of 37°C. Only glass lab ware was used for these experiments to avoid any non-specific binding effects of the highly lipophilic compounds to plastic material. […]
as §1
(§2) The HPLC system was a Waters HPLC (Milford, MA) consisting of a 1525 binary pump, an 717plus autosampler and 2487 dual wavelength absorbance detector set at the detection wavelength of 254 nm. Data collection and integration were accomplished using Breeze™ software version 3.2. Analysis was performed on a Symmetry C18 column (150 × 4.6 mm I.D., 5 μm particle size, Waters, MA). Typically, 20 μL of sample were injected and separated at a flow rate of 1 mL/min. Gradient elution was performed using water (containing 0.2 % (v/v) acetic acid) and ACN, starting at 60:40 (v/v) water/ACN increasing linearly to 29:71 (v/v) water/ACN by 30 min. The assay was accurate and reproducible. The lower limit of quantitation was 10 ng/mL for all glucocorticoids except ciclesonide (20 ng/mL).

[4] = Adsorption of glucocorticoids to human lung tissue; assay type: in vitro ADME; conditions: 37°C; for tissue binding (concentration in human lung tissue) after adsorption: 60 min incubation, 0.3 μg/mL glucocorticoid in buffer, before incubation in plasma
Protocol: Lung tissue was washed in Krebs-Ringer-HEPES buffer (pH 7.4) and sliced into pieces of 1 mm^3. For each binding experiment approximately 0.5 g of lung tissue was used. Adsorption of glucocorticoids (0.3 μg/mL) to human lung tissue was determined as described earlier. Briefly, lung tissue pieces were suspended under gentle shaking for 1 h at 37°C in 20 ml Krebs-Ringer-HEPES buffer containing 0.3 μg/ml of the glucocorticoid. 2.0 mL samples were taken and stored at -20°C until analysis. The volume withdrawn was replaced with fresh buffer of 37°C. Only glass lab ware was used for these experiments to avoid any non-specific binding effects of the highly lipophilic compounds to plastic material. For control, blank samples with glucocorticoid-containing buffer, but no tissue, were incubated under the same experimental conditions (1 h at 37°C, in Krebs-Ringer-HEPES buffer) and analyzed for non-specific adsorption of the glucocorticoids to the glass tubes.
as §1, §2

[5] = Desorption of glucocorticoids from human lung tissue into human plasma; assay type: in vitro ADME; conditions: for concentration remaining in human lung tissue after desorption: after 60 min equilibration with human plasma at 37°C; for retention / tissue binding in human lung tissue (in words): in vitro
Protocol: Desorption of glucocorticoids to human lung tissue was determined as described earlier. Briefly, lung tissue (1.0 g) was saturated with glucocorticoids for 1 h at 37°C by shaking in 40 mL Krebs-Ringer-HEPES buffer containing 0.3 μg/mL of the respective glucocorticoid. After incubation tissue was washed with 2 mL buffer and transferred into 10.0 mL human plasma (37°C). Again, only glass lab ware was used for these experiments to exclude any non-specific binding effects of the highly lipophilic compounds to plastic material. Samples of 1.0 mL were taken at defined time points. The volume was replaced with fresh plasma at 37°C. Samples were stored at -20°C until further analysis.
as §1, §2

[6] = Binding to human nasal tissue; assay type: in vitro ADME; conditions: single experiment, tissue pooled from 3 donors; data not shown
[7] = molecular target: T1, human lung glucocorticoid receptor; conditions: from previous experiments of the authors; ref [3]; cited from earlier work
[8] = system: glucocorticoid receptor (rat receptor data); parameters: method as in PMID 14718604; conditions: reference dexamethasone = 100, ref [16]; cited from earlier work

Row | SMILES | tissue binding (concentration in human lung tissue) after adsorption [4] | concentration remaining in human lung tissue after desorption [5] | retention / tissue binding in human lung tissue (in words) [5] | non-specific binding to glass incubation vials [3] | other results
1 | CCC(=O)OCC(=O)[C@@]1(OC(=O)CC)[C@@H](C)C[C@H]2[C@@H]3CCC4=CC(=O)C=C[C@]4(C)[C@@]3(Cl)[C@@H](O)C[C@@]21C [BDP, beclomethasone-17, 21-dipropionate] | – | – | – | – | concentration in the supernatant in the absence of dichlorvos (control of enzymatic integrity) ([1]; human lung tissue, absence of dichlorvos, data not shown): rapidly decreased
2 | C[C@@H]1C[C@H]2[C@@H]3CCC4=CC(=O)C=C[C@]4(C)[C@@]3(F)[C@@H](O)C[C@]2(C)[C@@]1(O)C(=O)CO [Dexa, dexamethasone] | – | – | – | – | association rate constant k1 ([2]; [3H]-glucocorticoid): 10.53 ± 0.35 × 10^5 (L/[mol/min]); dissociation rate constant k-1 [2]: 94.67 ± 5.43 × 10^-4 [1/min]
3 | CCC(=O)O[C@]1(C(=O)SCF)[C@H](C)C[C@H]2[C@@H]3C[C@H](F)C4=CC(=O)C=C[C@]4(C)[C@@]3(F)[C@@H](O)C[C@@]21C [FP, fluticasone propionate] | 3.39 ± 0.06 ng/mg | 1.55 ± 0.13 ng/mg | pronounced retention | no non-specific binding; also recorded: No adsorption | association rate constant k1 [7]: 21.17 ± 0.56 × 10^5 (L/[mol/min]); dissociation rate constant k-1 [7]: 10.73 ± 0.65 × 10^-4 [1/min]
4 | C[C@]12C=CC(=O)C=C1CC[C@@H]1[C@@H]2[C@@H](O)C[C@@]2(C)[C@H]1C[C@H]1O[C@@H](C3CCCCC3)O[C@]12C(=O)CO [des-Cicle, desisobutyryl-ciclesonide] | – | – | – | – | RRA (relative receptor affinity) [8]: 1212

The next lines start with results.

Row | tissue binding (concentration in human lung tissue) after adsorption [4] | concentration remaining in human lung tissue after desorption [5] | retention / tissue binding in human lung tissue (in words) [5] | SMILES | non-specific binding to glass incubation vials [3] | other results
5 | 4.18 ± 0.16 ng/mg | 1.21 ± 0.23 ng/mg | pronounced retention | C[C@@H]1C[C@H]2[C@@H]3C[C@H](F)C4=CC(=O)C=C[C@]4(C)[C@@]3(F)[C@@H](O)C[C@]2(C)[C@@]1(OC(=O)c1ccco1)C(=O)SCF [FF, fluticasone furoate] | no non-specific binding; also recorded: No adsorption | stability in human lung tissue (in words) ([1]; 0.3 μg/mL, 24 hours, presence and absence of dichlorvos, HPLC of supernatant): no indication of instability or chemical modification; also recorded: non-specific esterase-catalyzed hydrolysis of FF did not occur; also recorded: no degradation or metabolism; time to complete adsorption to human lung tissue ([4]; in vitro, data not shown): about 20 min; binding to human nasal tissue compared with FP [6]: greater binding
6 | 3.65 ± 0.15 ng/mg | 0.57 ± 0.15 ng/mg | Lowest tissue binding | C[C@@H]1C[C@H]2[C@@H]3CCC4=CC(=O)C=C[C@]4(C)[C@@]3(Cl)[C@@H](O)C[C@]2(C)[C@@]1(OC(=O)c1ccco1)C(=O)CCl [MF, mometasone furoate] | did not display non-specific binding to glass | chemical stability in buffer ([3]; degradation product 9,11-epoxy MF): chemical instability
